Patent publication US6448279B1, “Isothiazolone/amine oxide wood preservatives” (Lonza Inc., priority 1999, dated 2002)

Key:
Test in all cases: agar dilution plate method, percent retardation of wood rot fungi
Format in all cases: cell-based
[1] = tested on: P. placenta (brown rot fungi)
Experimental: (§1) The efficacy of aqueous 1,2-benzisothiazolone/amine oxide solutions containing the amine oxides in Table 1 against the wood rot fungi T. versicolor (white rot fungi), G. trabeum (brown rot fungi), P. placenta (brown rot fungi), and C. globosum (soft rot decay fungi) were determined using the agar dilution plate method well known in the art. The water in the solution was evaporated to form an agar/biocide mixture and then tested. Each solution was tested at dilutions ranging from 10 to 5000 ppm of benzisothiazolone. The weight ratio of amine oxide to 1,2-benzisothiazolone was either 20:1 or 10:1 in each solution. The percent retardation of the fungi was determined by the percentage change in the diameter of the fungi on the agar plate (i.e. Percent Retardation=((Diameter of Control)−(Diameter of Treated Fungi))/(Diameter of Control)* 100%).
(§2) The efficacy of aqueous 4,5-dichloro-2-n-octyl-3-isothiazolone/amine oxide solutions containing the amine oxides in Table 2 against the wood rot fungi T. versicolor (white not fungi), G. trabeum (brown rot fungi), P. placenta (brown rot fungi), and C. globosum (soft rot decay fungi) were determined as described in Example 6.

[2] = tested on: C. globosum (soft rot decay fungi)
Experimental: as §1, §2

[3] = tested on: T. versicolor (white rot fungi)
Experimental: as §1, §2

[4] = tested on: G. trabeum (brown rot fungi)
Experimental: as §1, §2

[5] = no amine oxide, 4,5-dichloro-2-n-octyl-isothiazolone 0.5 ppm
[6] = no amine oxide, 4,5-dichloro-2-n-octyl-isothiazolone 5 ppm
[7] = no amine oxide, 4,5-dichloro-2-n-octyl-isothiazolone 50 ppm
[8] = no amine oxide, 4,5-dichloro-2-n-octyl-isothiazolone 100 ppm
[9] = no amine oxide, 4,5-dichloro-2-n-octyl-isothiazolone 250 ppm
[10] = no amine oxide, 4,5-dichloro-2-n-octyl-isothiazolone 500 ppm
[11] = no amine oxide, 4,5-dichloro-2-n-octyl-isothiazolone 750 ppm

`CCCCCCCCn1sc(Cl)c(Cl)c1=O` [4,5-dichloro-2-n-octyl-isothiazolone, 4,5-dichloro-2-n-octyl-3-isothiazolone] was tested, and the “Percent Retardation P. placenta” value [1, 5] was 42%, the “Percent Retardation P. placenta” value [1, 6] was 83% and the “Percent Retardation P. placenta” value [1, 7] was 100%. The “Percent Retardation P. placenta” value [1, 8] was 100%, the “Percent Retardation P. placenta” value [1, 9] was 100% and the “Percent Retardation P. placenta” value [1, 10] was 100%. The “Percent Retardation C. globosum” value [2, 5] was 63%, the “Percent Retardation C. globosum” value [2, 6] was 60% and the “Percent Retardation C. globosum” value [2, 7] was 67%. For the same compound, the “Percent Retardation C. globosum” value [2, 8] was 78%, the “Percent Retardation C. globosum” value [2, 9] was 89% and the “Percent Retardation C. globosum” value [2, 10] was 100%. For the same compound, the “Percent Retardation C. globosum” value [2, 11] was 100%, the “Percent Retardation T Versicolor” value [3, 5] was 12% and the “Percent Retardation T Versicolor” value [3, 6] was 51%. For the same compound, the “Percent Retardation T Versicolor” value [3, 7] was 82%, the “Percent Retardation T Versicolor” value [3, 8] was 87% and the “Percent Retardation T Versicolor” value [3, 9] was 87%. The “Percent Retardation T Versicolor” value [3, 10] was 88%, the “Percent Retardation T Versicolor” value [3, 11] was 100% and the “Percent Retardation G. trabeum” value [4, 5] was 11%. The “Percent Retardation G. trabeum” value [4, 6] was 63%, the “Percent Retardation G. trabeum” value [4, 7] was 83% and the “Percent Retardation G. trabeum” value [4, 8] was 85%. For the same compound, the “Percent Retardation G. trabeum” value [4, 9] was 87%, the “Percent Retardation G. trabeum” value [4, 10] was 88% and the “Percent Retardation G. trabeum” value [4, 11] was 100%.
